Test results reported in patent publication US20230312473A1, “PROCESS FOR THE PREPARATION OF BIHETEROARYL COMPOUNDS AND CRYSTAL FORMS THEREOF” (Genentech, Inc., priority 2020, published 2023).
Read-outs that look alike come from different tables or passages of the source.

Experiment: Solubility of compound 1 in the solvent under evaluation at 22° C. and 65° C. (crystallization study)
Type: physicochemical
Procedure: Crystalline compound 1 was evaluated. Crystallization study procedures were done based on the solubility of compound 1 in the solvent under evaluation as follows.
The results are presented below in Table 10 where: * refers to compound 1 prepared as described above; and ** refers to compound 1 prepared as described above and further incubated at 100% relative humidity at 22° C. for 17 days.

Nc1ncc(-c2cc(N3C[C@@H]4C[C@H]3CO4)nc(N3CCC(F)(F)C3)n2)cc1OC(F)F [Compound 1, 5-(6-((1S,4S)-2-oxa-5-azabicyclo[2.2.1]heptan-5-yl)-2-(3,3-difluoropyrrolidin-1-yl)pyrimidin-4-yl)-3-(difluoromethoxy)pyridin-2-amine]
solubility (2-methyl THF, 22 °C, organic solvent or mixture, thermodynamic from solid, solvent: 2-methyl THF, read-out: Solubility at 22° C.): < 50 mg/mL | solubility (2-methyl THF, 65 °C, organic solvent or mixture, solvent: 2-methyl THF, read-out: Solubility at 65° C.): > 50 mg/mL | solubility (5% water in ethanol, 22 °C, organic solvent or mixture, thermodynamic from solid, solvent: 5% water in ethanol, read-out: Solubility at 22° C.): < 50 mg/mL | solubility (5% water in ethanol, 65 °C, organic solvent or mixture, solvent: 5% water in ethanol, read-out: Solubility at 65° C.): < 50 mg/mL | solubility (5% water in isopropanol, 22 °C, organic solvent or mixture, thermodynamic from solid, solvent: 5% water in isopropanol, read-out: Solubility at 22° C.): < 50 mg/mL | solubility (5% water in isopropanol, 65 °C, organic solvent or mixture, solvent: 5% water in isopropanol, read-out: Solubility at 65° C.): < 50 mg/mL | solubility (5% water in methanol, 22 °C, organic solvent or mixture, thermodynamic from solid, solvent: 5% water in methanol, read-out: Solubility at 22° C.): < 50 mg/mL | solubility (5% water in methanol, 65 °C, organic solvent or mixture, solvent: 5% water in methanol, read-out: Solubility at 65° C.): < 50 mg/mL | solubility (5% water in propanol, 22 °C, organic solvent or mixture, thermodynamic from solid, solvent: 5% water in propanol, read-out: Solubility at 22° C.): < 50 mg/mL | solubility (5% water in propanol, 65 °C, organic solvent or mixture, solvent: 5% water in propanol, read-out: Solubility at 65° C.): < 50 mg/mL | solubility (15% water in THF, 22 °C, organic solvent or mixture, thermodynamic from solid, solvent: 15% water in THF, read-out: Solubility at 22° C.): > 50 mg/mL | solubility (15% water in acetone, 22 °C, organic solvent or mixture, thermodynamic from solid, solvent: 15% water in acetone, read-out: Solubility at 22° C.): < 50 mg/mL | solubility (15% water in acetone, 65 °C, organic solvent or mixture, thermodynamic from solid, solvent: 15% water in acetone, read-out: Solubility at 65° C.): > 50 mg/mL | solubility (15% water in ethanol, 22 °C, organic solvent or mixture, thermodynamic from solid, solvent: 15% water in ethanol, read-out: Solubility at 22° C.): < 50 mg/mL | solubility (15% water in ethanol, 65 °C, organic solvent or mixture, thermodynamic from solid, solvent: 15% water in ethanol, read-out: Solubility at 65° C.): < 50 mg/mL | solubility (15% water in isopropanol, 22 °C, organic solvent or mixture, thermodynamic from solid, solvent: 15% water in isopropanol, read-out: Solubility at 22° C.): < 50 mg/mL | solubility (15% water in isopropanol, 65 °C, organic solvent or mixture, thermodynamic from solid, solvent: 15% water in isopropanol, read-out: Solubility at 65° C.): < 50 mg/mL | solubility (15% water in methanol, 22 °C, organic solvent or mixture, thermodynamic from solid, solvent: 15% water in methanol, read-out: Solubility at 22° C.): < 50 mg/mL | solubility (15% water in methanol, 65 °C, organic solvent or mixture, solvent: 15% water in methanol, read-out: Solubility at 65° C.): < 50 mg/mL | solubility (15% water in propanol, 22 °C, organic solvent or mixture, thermodynamic from solid, solvent: 15% water in propanol, read-out: Solubility at 22° C.): < 50 mg/mL | solubility (15% water in propanol, 65 °C, organic solvent or mixture, solvent: 15% water in propanol, read-out: Solubility at 65° C.): < 50 mg/mL | solubility (20% water in acetonitrile, 22 °C, organic solvent or mixture, thermodynamic from solid, solvent: 20% water in acetonitrile, read-out: Solubility at 22° C.): < 50 mg/mL | solubility (20% water in acetonitrile, 65 °C, organic solvent or mixture, solvent: 20% water in acetonitrile, read-out: Solubility at 65° C.): > 50 mg/mL | solubility (50% water in acetonitrile, 22 °C, aqueous with cosolvent or surfactant or cyclodextrin, thermodynamic from solid, solvent: 50% water in acetonitrile, read-out: Solubility at 22° C.): < 50 mg/mL | solubility (50% water in acetonitrile, 65 °C, aqueous with cosolvent or surfactant or cyclodextrin, solvent: 50% water in acetonitrile, read-out: Solubility at 65° C.): < 50 mg/mL | solubility (50% water in ethanol, 22 °C, aqueous with cosolvent or surfactant or cyclodextrin, thermodynamic from solid, solvent: 50% water in ethanol, read-out: Solubility at 22° C.): < 50 mg/mL | solubility (50% water in ethanol, 65 °C, aqueous with cosolvent or surfactant or cyclodextrin, solvent: 50% water in ethanol, read-out: Solubility at 65° C.): < 50 mg/mL | solubility (50% water in isopropanol, 22 °C, aqueous with cosolvent or surfactant or cyclodextrin, thermodynamic from solid, solvent: 50% water in isopropanol, read-out: Solubility at 22° C.): < 50 mg/mL | solubility (50% water in isopropanol, 65 °C, aqueous with cosolvent or surfactant or cyclodextrin, solvent: 50% water in isopropanol, read-out: Solubility at 65° C.): < 50 mg/mL | solubility (50% water in methanol, 22 °C, aqueous with cosolvent or surfactant or cyclodextrin, thermodynamic from solid, solvent: 50% water in methanol, read-out: Solubility at 22° C.): < 50 mg/mL | solubility (50% water in methanol, 65 °C, aqueous with cosolvent or surfactant or cyclodextrin, solvent: 50% water in methanol, read-out: Solubility at 65° C.): < 50 mg/mL | solubility (50% water in propanol, 22 °C, aqueous with cosolvent or surfactant or cyclodextrin, thermodynamic from solid, solvent: 50% water in propanol, read-out: Solubility at 22° C.): < 50 mg/mL | solubility (50% water in propanol, 65 °C, aqueous with cosolvent or surfactant or cyclodextrin, solvent: 50% water in propanol, read-out: Solubility at 65° C.): < 50 mg/mL | solubility (80% water in acetonitrile, 22 °C, aqueous with cosolvent or surfactant or cyclodextrin, thermodynamic from solid, solvent: 80% water in acetonitrile, read-out: Solubility at 22° C.): < 50 mg/mL | solubility (80% water in acetonitrile, 65 °C, aqueous with cosolvent or surfactant or cyclodextrin, solvent: 80% water in acetonitrile, read-out: Solubility at 65° C.): < 50 mg/mL | solubility (Acetic acid, 22 °C, organic solvent or mixture, thermodynamic from solid, solvent: Acetic acid, read-out: Solubility at 22° C.): > 100 mg/mL | solubility (Acetonitrile, 22 °C, organic solvent or mixture, thermodynamic from solid, solvent: Acetonitrile, read-out: Solubility at 22° C.): < 50 mg/mL | solubility (Acetonitrile, 65 °C, organic solvent or mixture, solvent: Acetonitrile, read-out: Solubility at 65° C.): > 50 mg/mL | solubility (Chloroform, 22 °C, organic solvent or mixture, thermodynamic from solid, solvent: Chloroform, read-out: Solubility at 22° C.): < 50 mg/mL | solubility (Chloroform, 65 °C, organic solvent or mixture, solvent: Chloroform, read-out: Solubility at 65° C.): > 50 mg/mL | solubility (DMA, 22 °C, organic solvent or mixture, thermodynamic from solid, solvent: DMA, read-out: Solubility at 22° C.): > 200 mg/mL | solubility (DMF, 22 °C, organic solvent or mixture, thermodynamic from solid, solvent: DMF, read-out: Solubility at 22° C.): > 100 mg/mL | solubility (DMSO, 22 °C, organic solvent or mixture, thermodynamic from solid, solvent: DMSO, read-out: Solubility at 22° C.): > 100 mg/mL | solubility (Dichloromethane, 22 °C, organic solvent or mixture, thermodynamic from solid, solvent: Dichloromethane, read-out: Solubility at 22° C.): < 50 mg/mL | solubility (Dichloromethane, 65 °C, organic solvent or mixture, solvent: Dichloromethane, read-out: Solubility at 65° C.): > 50 mg/mL | solubility (Diisopropylamine, 22 °C, organic solvent or mixture, thermodynamic from solid, solvent: Diisopropylamine, read-out: Solubility at 22° C.): < 50 mg/mL | solubility (Diisopropylamine, 65 °C, organic solvent or mixture, solvent: Diisopropylamine, read-out: Solubility at 65° C.): < 50 mg/mL | solubility (Dimethyl carbonate, 22 °C, organic solvent or mixture, thermodynamic from solid, solvent: Dimethyl carbonate, read-out: Solubility at 22° C.): < 50 mg/mL
